Experiments:
[1] = cited from earlier work
[2] = Solubility of latanoprost; format: physicochemical; conditions: 1%, 2% or 4% (w/w %) formulations, clear solution
Description: Latanoprost and other prostaglandin analogs are available commercially, for example, from Cayman Chemical (Ann Arbor, Mich.).
Liquid formulations of latanoprost and benzyl benzoate were made by weighing each component and mixing them together. Latanoprost is soluble in benzyl benzoate, yielding a clear solution. The formulations were either 1%, 2%, or 4% (w/w %) latanoprost.

solubility in benzyl benzoate [2]: soluble
Structure (SMILES): CC(C)OC(=O)CCC/C=C\C[C@@H]1[C@@H](CC[C@@H](O)CCc2ccccc2)[C@H](O)C[C@@H]1O [Latanoprost, isopropyl-(Z)7[(1R,2R,3R,5S)3,5-dihydroxy-2-[(3R)-3-hydroxy-5-phenylpentyl]cyclopentyl]-5-heptenoate]
solubility in acetone, ethanol, ethyl acetate, isopropanol, methanol, and octanol ([1]; acetone, ethanol, ethyl acetate, isopropanol, methanol, octanol): freely soluble
solubility in acetonitrile ([1]; acetonitrile): very soluble
solubility in water ([1]; water): practically insoluble

From patent US9636347B2, “Sustained release formulations for the treatment of intraocular pressure or glaucoma” (Icon Bioscience, Inc., priority 2013, dated 2017)
